Test [1] concerns the target T1, KOR (Homo sapiens, UniProt P41145). Briefly: KOR cAMP agonist assay. In kind it is cell-based. The settings on record: Table 1; read-out: KOR cAMP Agonist Potency ± SEM.
In another test the target is T2, δ opioid receptor (Rattus norvegicus, UniProt P33533).
T2 construct: from tissue; host or cells: rat tissue (per the earlier reading)
Put plainly: Binding assay, 3H DADLE, rat tissue.

A further test deals with T3, κ opioid receptor (Rattus norvegicus, UniProt P34975).
T3 construct: from tissue; host or cells: rat tissue (per the earlier reading)
Put plainly: Binding assay, 3H U69,593, rat tissue.

Test [2] deals with T1, KOR. Briefly: KOR cAMP antagonist assay. Type of test: cell-based.
Test [3] concerns the target T4, μ opioid receptor (Rattus norvegicus, UniProt P33535). Briefly: biochemical.
Test [4] addresses T5, MOR (Homo sapiens, UniProt P35372). Briefly: cell-based. Further details: host or cells: U2OS-β-arrestin2-EFC-hMOR. The settings on record: for EC50: read-out: MOR Mediated β-arrestin Recruitment. In kind it is cell-based. The protocol: The PathHunter β-arrestin assay. The assay was performed according to the manufacturer's protocol (DiscoveRx) and as described previously. Briefly, 5000 U2OS-β-arrestin2-EFC-hMOR cells were plated in 384-well white plates with Opti-MEM media (Invitrogen) containing 1% FBS±pertussis toxin (100 ng/ml) overnight. The next day, cells were treated with compounds for 90 min at 37° C., followed by a 1-hour incubation of detection reagent at room temperature. Luminescence values were determined by using a Synergy HT luminometer (BioTek).
In general terms: Activated receptors often draw arrestin, which recruitment assays turn into a signal.

The target in test [5] is T5, MOR. Briefly: cell-based. More on the design: expressed in transfected cells; host or cells: CHO-hMOR (membrane variant); SH-SY5Y-hMOR also named. In kind it is cell-based. The protocol: Four thousand cells per well were split into 384-well low-volume plate (VWR) with Opti-MEM (Invitrogen) supplemented with 1% FBS for 3 hours at 37° C. except SH-SY5Y-hMOR cells, which were plated for 1 hour at 37° C. Cells were then treated with drugs, […] forskolin for 30 min at room temperature.
Cells were then homogenized by a Dounce homogenizer 15 times in an ice-cold buffer [50 mM Hepes (pH 7.4)], followed by centrifugation at 500 g at 4° C. for 5 min. The supernatant was transferred to a 1.5-ml tube on ice, and the pellet was resuspended, homogenized, and centrifuged at 500 g at 4° C. for 5 min. Then, the supernatant was combined and spun at 20,000 g at 4° C. for 10 min. The membrane pellet was resuspended in an ice-cold buffer [50 mM Hepes (pH 7.4)] at concentrations of […]. Membranes were stored at −80° C. until use. For forskolin-stimulated cAMP accumulation assay, membranes were diluted in an assay buffer (50 mM Hepes, 10 mM MgCl2, 100 mM NaCl, 200 mM adenosine 5′-triphosphate, 10 mM GTP, 100 mM 3-isobutyl-1-methylxanthine, 20 mM forskolin, and 30 mM bovine serum albumin) and plated at […] of protein in each well. Membranes were treated with test compounds for 30 min at room temperature. The cAMP levels were determined as per the manufacturer's instructions (Cisbio cAMP HiRange assay).

In test [6] the target is T4, μ opioid receptor. Particulars: read-out: 3H DAMGO μ Ki ± SEM; rat tissue, triplicate.

Where two headings read alike, the source gives them in different places. Where only a bound is given, the exact number is not on record here.

T3 sequence (P34975 whole entry): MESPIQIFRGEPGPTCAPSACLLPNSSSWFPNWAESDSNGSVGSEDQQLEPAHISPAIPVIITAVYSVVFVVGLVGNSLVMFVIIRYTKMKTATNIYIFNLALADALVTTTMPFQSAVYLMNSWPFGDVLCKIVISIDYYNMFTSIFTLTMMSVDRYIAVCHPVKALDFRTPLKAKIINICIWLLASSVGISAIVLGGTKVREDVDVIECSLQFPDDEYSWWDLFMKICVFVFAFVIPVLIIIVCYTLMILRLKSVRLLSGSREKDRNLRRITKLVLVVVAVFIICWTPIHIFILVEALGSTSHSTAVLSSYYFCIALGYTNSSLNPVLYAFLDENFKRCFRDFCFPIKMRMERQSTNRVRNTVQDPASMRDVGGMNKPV
T1 sequence (P41145 whole entry): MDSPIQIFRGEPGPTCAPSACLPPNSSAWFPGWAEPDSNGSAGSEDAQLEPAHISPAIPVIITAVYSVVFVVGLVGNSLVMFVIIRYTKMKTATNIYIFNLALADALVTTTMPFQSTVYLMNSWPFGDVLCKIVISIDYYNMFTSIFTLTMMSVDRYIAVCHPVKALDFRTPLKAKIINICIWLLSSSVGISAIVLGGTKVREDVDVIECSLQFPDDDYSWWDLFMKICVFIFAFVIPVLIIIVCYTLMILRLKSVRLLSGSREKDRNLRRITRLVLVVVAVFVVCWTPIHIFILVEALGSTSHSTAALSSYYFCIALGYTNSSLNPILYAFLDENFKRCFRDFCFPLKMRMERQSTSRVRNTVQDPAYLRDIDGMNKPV
T5 sequence (P35372 whole entry): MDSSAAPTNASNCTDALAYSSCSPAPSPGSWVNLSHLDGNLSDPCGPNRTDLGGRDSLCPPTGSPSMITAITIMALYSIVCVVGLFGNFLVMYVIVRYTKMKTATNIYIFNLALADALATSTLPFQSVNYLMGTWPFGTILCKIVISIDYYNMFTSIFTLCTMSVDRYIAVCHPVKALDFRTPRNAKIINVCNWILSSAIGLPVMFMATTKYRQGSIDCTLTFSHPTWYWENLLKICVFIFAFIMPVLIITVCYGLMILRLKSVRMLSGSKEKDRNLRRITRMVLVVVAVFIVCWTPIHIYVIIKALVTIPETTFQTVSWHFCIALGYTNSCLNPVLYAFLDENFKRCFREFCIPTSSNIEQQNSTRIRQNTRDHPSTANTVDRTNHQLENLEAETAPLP
T4 sequence (P33535 whole entry): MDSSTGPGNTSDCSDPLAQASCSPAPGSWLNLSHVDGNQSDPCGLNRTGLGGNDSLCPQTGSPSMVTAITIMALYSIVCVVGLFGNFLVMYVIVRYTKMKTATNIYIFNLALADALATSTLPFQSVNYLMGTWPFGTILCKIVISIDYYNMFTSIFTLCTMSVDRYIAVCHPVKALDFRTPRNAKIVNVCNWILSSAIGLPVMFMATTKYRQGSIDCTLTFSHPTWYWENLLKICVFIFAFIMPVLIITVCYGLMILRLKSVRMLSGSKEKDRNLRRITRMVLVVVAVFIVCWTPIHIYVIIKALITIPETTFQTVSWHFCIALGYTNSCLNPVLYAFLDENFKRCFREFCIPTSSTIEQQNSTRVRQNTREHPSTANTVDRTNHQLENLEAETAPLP
T2 sequence (P33533 whole entry): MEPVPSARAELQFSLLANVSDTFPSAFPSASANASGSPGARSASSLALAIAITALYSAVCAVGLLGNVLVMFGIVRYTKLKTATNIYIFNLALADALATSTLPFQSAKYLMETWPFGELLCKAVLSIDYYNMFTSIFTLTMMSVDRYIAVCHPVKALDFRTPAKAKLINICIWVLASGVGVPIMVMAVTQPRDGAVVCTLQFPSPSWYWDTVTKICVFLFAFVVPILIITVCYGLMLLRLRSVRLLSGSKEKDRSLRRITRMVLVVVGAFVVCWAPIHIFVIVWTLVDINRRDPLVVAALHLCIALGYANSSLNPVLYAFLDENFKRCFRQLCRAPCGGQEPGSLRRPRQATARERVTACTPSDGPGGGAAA

For `COC(=O)CC[C@H]1[C@@H]2CCC[C@@]1(c1cccc(O)c1)CCN2CCc1ccccc1` [Compound 8, Methyl 3-((1S,5R,9R)-5-(3-hydroxyphenyl)-2-phenethyl-2-azabicyclo[3.3.1]nonan-9-yl)propanoate], the EC50 on KOR [1] was more than 10000 nM; at MOR [4] (Table 1), more than 25000 nM. Moreover, the Ki (in general, a dissociation constant, usually derived from enzyme kinetics or from competition with a known ligand) on δ opioid receptor (triplicate, read-out: 3H DADLE δ Ki ± SEM) is 118 ± 7.41 nM; on κ opioid receptor (rat tissue, triplicate, read-out: 3H U69,593 κ Ki ± SEM) it was 23.2 ± 3.11 nM; on μ opioid receptor [3], 0.9 ± 0.04 nM. The “KOR cAMP Antagonist Potency ± SEM” value on KOR [2] (Table 1) is given as 2.0 ± 0.4 nM. Moreover, the “activity at the kappa-receptor (in words)” value on KOR [2] (in vitro data) is given as “kappa-receptor antagonist”. Besides, the “beta-arrestin recruitment (in words)” value on MOR [4] is “do not”. Further, the Emax (as a rule, the greatest response seen or fitted, relative to the assay's reference) on MOR [4] (read-out: MOR Mediated β-arrestin Recruitment (% Control, Emax DAMGO), Table 1) was 0%.

As for “3-((1S,5R,9R)-9-(2-hydroxyethyl)-2-phenethyl-2-azabicyclo[3.3.1]nonan-5-yl)phenol [Compound 9]”, at δ opioid receptor (100 nM concentration), the “3H DADLE δ activity in exploratory assay” value is “I (<50% activity at 100 nM concentration (displaced less than half of radioligand) in exploratory assay)”. Also, at κ opioid receptor (100 nM concentration, rat tissue), the “3H U69,593 κ activity in exploratory assay” value is on record as “I (<50% activity at 100 nM concentration (displaced less than half of radioligand) in exploratory assay)”. Moreover, at κ opioid receptor (in vitro data), the “interaction with the kappa-receptor (in words)” value is “does not interact with the kappa-receptor”. For the same compound, at MOR [5] (Table 1), the “MOR cAMP Agonist (% Efficacy)” value was “(64 ± 2%)”. Moreover, the EC50 was 4.7 ± 0.5 nM at MOR [5] (Table 1, read-out: MOR cAMP Agonist Potency ± SEM) and more than 25000 nM on MOR [4] (Table 1). Besides, the “agonist character at the mu-receptor (in words)” value on MOR [5] (in vitro data) is recorded as “less potent partial agonist”. Besides, the Ki at μ opioid receptor [6] was 5.43 ± 0.09 nM. On MOR [4], the “beta-arrestin recruitment (in words)” value is “do not”.

The values are drawn from patent US11352365B2, “Biased potent opioid-like agonists as improved medications to treat chronic and acute pain and methods of using the same” (THE UNITED STATES OF AMERICA, AS REPRESENTED BY THE …, priority 2018, dated 2022).
